Columns and labels:
Type in all cases: in vivo
[1] = system: carageenin induced oedema; test: carrageenin induced oedema test in the rat; conditions: for inhibitions (carrageenin oedema) versus controls: dose not given
From the text: In a conventional carageenin induced oedema test in the rat, the results were as follows: […]

[2] = system: cotton pellet induced granuloma; test: cotton pellet induced granuloma test
From the text: In a convention cotton pellet induced granuloma test, the results were as follows: I

[3] = system: phenylquinone induced mouse writhing; test: phenylquinone induced mouse writhing test; conditions: po; for inhibition at 16 mg/kg: 16 mg/kg per os
From the text: In a conventional phenylquinone induced mouse writhing test, compound 1, 3 and 4 were active at the following dose per os.

In the case of Cn1cccc1C(=O)c1ccc(CC(=O)O)n1C [Compound 1, 2-Carboxymethyl-1-methyl-5-(1'-methyl-2'-pyrroloyl)pyrrrole], the inhibition at 20 mg/kg ([1]; dose 20 mg/kg, * 0.05>p>0.02) is reported as 19%, the “Mean Oedema” value ([1]; dose 20 mg/kg, control 145.3 + 10.3) is reported as 117.7 + 6.6 and the inhibition at 10 mg/kg ([2]; dose 10 mg/kg, * 0.05>p>0.02) is reported as 22%. The “Granuloma Wt.” value ([2]; dose 10 mg/kg, control 48.1) was 37.6 mg and the inhibition at 16 mg/kg [3] was 90%.
In the case of Cc1cc(CC(=O)O)n(C)c1C(=O)c1cccn1C [Compound 3, 2-Carboxymethyl-1,4-dimethyl-5-(1'-methyl-2'-pyrroloyl) pyrrole], the inhibition at 12.5 mg/kg ([1]; dose 12.5 mg/kg, ** 0.01>p>0.001) is reported as 33%, the “Mean Oedema” value ([1]; dose 12.5 mg/kg, control 106.0 + 6.01) is reported as 70.62 + 6.31 and the inhibition at 5 mg/kg ([2]; dose 5 mg/kg, ** 0.01>p>0.001) is reported as 26%. For the same compound, the “Granuloma Wt.” value ([2]; dose 5 mg/kg, control 35.2) was 26.1 mg, the inhibition at 16 mg/kg [3] was 100% and the ED50 ([3]; separate test) was 2.8 mg/kg.
Cc1cc(CCC(=O)O)n(C)c1C(=O)c1cccn1C [Compound 4, 2-(2'-Carboxyethyl)-1,4-dimethyl-5-(1"-methyl-2" pyrroloyl) pyrrole] gave an inhibition at 16 mg/kg [3] of 60%.
With CC(=O)CCc1cc(C)c(C(=O)c2cccn2C)n1C [Compound 5, 4-(1',4'-Dimethyl-5'-(1"-methyl-2"-pyrroloyl)-2'-pyrryl) butan-2-one] the “inhibitions (carrageenin oedema) versus controls” value [1] was “significantly different from controls”.
With Cc1cc(CCC(C)O)n(C)c1C(=O)c1cccn1C (stereo not drawn) [Compound 6, 4-(1',4-Dimethyl-5'-(1"-methyl-2"-pyrroloyl)-2'-pyrryl) butan-2-ol] the “inhibitions (carrageenin oedema) versus controls” value [1] was “significantly different from controls”.
With CC(=O)OC(C)CCc1cc(C)c(C(=O)c2cccn2C)n1C (stereo not drawn) [Compound 7, 2-Acetoxy-4-(1',4'-Dimethvl-5'-(1"-methyl-2"-pvrroloyl)-2'-pyrryl)butane] the “inhibitions (carrageenin oedema) versus controls” value [1] was “significantly different from controls”.

From patent EP0032048A1, “Pyrroloylpyrrole derivatives, processes for their preparation and their use” (BEECHAM GROUP PLC, priority 1980, dated 1981)
